This note sets out measurements from ChEMBL document CHEMBL1909046, “DrugMatrix in vitro pharmacology data”.

Each structure is given as a SMILES string.

Sequence of Acetylcholinesterase (P22303 whole entry): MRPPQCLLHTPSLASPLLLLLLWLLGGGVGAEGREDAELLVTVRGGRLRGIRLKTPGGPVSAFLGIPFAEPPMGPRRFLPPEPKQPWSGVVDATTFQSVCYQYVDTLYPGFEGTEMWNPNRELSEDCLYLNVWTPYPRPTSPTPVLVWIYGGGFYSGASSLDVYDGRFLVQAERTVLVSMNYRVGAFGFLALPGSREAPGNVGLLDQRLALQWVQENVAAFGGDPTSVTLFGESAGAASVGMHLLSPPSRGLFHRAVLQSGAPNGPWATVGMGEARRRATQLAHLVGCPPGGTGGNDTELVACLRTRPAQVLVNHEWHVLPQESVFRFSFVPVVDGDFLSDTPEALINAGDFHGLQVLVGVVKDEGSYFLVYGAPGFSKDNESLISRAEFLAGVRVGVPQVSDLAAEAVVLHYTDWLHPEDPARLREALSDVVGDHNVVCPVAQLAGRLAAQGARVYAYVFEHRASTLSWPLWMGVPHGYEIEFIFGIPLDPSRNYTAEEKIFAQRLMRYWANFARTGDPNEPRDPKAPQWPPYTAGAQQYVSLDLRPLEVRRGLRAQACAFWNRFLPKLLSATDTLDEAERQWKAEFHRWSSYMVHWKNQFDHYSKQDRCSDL
Sequence of Sodium-dependent noradrenaline transporter (P23975 whole entry): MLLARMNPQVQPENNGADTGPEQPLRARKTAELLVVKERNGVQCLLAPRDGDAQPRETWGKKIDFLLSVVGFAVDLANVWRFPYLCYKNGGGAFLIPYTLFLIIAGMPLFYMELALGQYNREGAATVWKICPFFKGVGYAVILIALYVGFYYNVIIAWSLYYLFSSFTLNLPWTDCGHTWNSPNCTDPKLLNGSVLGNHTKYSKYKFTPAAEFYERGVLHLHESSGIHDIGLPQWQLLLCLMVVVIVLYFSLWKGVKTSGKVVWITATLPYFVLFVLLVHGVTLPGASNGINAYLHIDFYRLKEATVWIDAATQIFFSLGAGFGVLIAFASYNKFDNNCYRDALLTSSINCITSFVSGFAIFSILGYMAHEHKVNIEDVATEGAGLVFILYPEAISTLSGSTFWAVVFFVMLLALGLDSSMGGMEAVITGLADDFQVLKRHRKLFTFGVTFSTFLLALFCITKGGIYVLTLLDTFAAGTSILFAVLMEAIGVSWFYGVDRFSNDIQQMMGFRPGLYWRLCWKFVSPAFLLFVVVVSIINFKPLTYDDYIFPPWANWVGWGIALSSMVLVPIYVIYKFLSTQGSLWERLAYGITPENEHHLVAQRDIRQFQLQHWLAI

One assay addresses T1, Alpha-2C adrenergic receptor (Homo sapiens, UniProt P18825).
T1 sequence (P18825 whole entry): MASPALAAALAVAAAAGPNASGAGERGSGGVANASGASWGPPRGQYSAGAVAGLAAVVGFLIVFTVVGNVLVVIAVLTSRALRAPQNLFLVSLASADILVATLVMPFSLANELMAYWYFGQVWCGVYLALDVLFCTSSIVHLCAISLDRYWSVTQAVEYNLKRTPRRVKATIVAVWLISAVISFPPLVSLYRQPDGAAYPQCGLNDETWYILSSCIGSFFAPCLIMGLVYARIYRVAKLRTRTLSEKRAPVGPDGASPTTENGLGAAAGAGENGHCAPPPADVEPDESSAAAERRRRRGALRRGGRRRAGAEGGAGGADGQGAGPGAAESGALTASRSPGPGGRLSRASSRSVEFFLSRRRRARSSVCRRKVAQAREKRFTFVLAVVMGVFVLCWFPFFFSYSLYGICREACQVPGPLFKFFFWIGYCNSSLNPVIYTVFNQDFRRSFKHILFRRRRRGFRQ
In words: DRUGMATRIX: Adrenergic Alpha-2C radioligand binding (ligand: [3H] MK-912). The note with it: sf9. Type of assay: cell membranes, Sf9, Membrane.
Take `CC1(C)O[C@@H]2C[C@H]3[C@@H]4C[C@H](F)C5=CC(=O)C=C[C@]5(C)[C@H]4[C@@H](O)C[C@]3(C)[C@]2(C(=O)CO)O1` [FLUNISOLIDE]: the IC50 result is on record as “Not Active”.

On to `CC1(C)O[C@@H]2C[C@H]3[C@@H]4C[C@H](F)C5=CC(=O)C=C[C@]5(C)[C@@]4(F)[C@@H](O)C[C@]3(C)[C@]2(C(=O)CO)O1` [FLUOCINOLONE ACETONIDE], for which the IC50 entry is “Not Active”.

On to `CC1(C)O[C@@H]2C[C@H]3[C@@H]4C[C@H](F)C5=CC(=O)CC[C@]5(C)[C@H]4[C@@H](O)C[C@]3(C)[C@]2(C(=O)CO)O1` [FLURANDRENOLIDE], for which the IC50 entry is listed as “Not Active”.

`Cc1ccc(S(=O)(=O)NC(=O)NN2CC3CCCC3C2)cc1` (stereo not given) [GLICLAZIDE]: the IC50 entry is recorded as “Not Active”.

Consider `NC(=O)NO` [HYDROXYUREA], for which the IC50 result was “Not Active”.

A further assay concerns the target Sodium-dependent noradrenaline transporter (Homo sapiens, UniProt P23975). The assay can be described thus: DRUGMATRIX: Norepinephrine Transporter radioligand binding (ligand: [125I] RTI-55). The format is cell membranes, MDCK, Membrane. The note with it: mdck; Not Active = under 50% inhibition at 10 µM.
Regarding `CC1(C)O[C@@H]2C[C@H]3[C@@H]4C[C@H](F)C5=CC(=O)C=C[C@]5(C)[C@H]4[C@@H](O)C[C@]3(C)[C@]2(C(=O)CO)O1` [FLUNISOLIDE], the IC50 result is recorded as “Not Active”.

As for `CC1(C)O[C@@H]2C[C@H]3[C@@H]4C[C@H](F)C5=CC(=O)C=C[C@]5(C)[C@@]4(F)[C@@H](O)C[C@]3(C)[C@]2(C(=O)CO)O1` [FLUOCINOLONE ACETONIDE], the IC50 result is reported as “Not Active”.

With `CC1(C)O[C@@H]2C[C@H]3[C@@H]4C[C@H](F)C5=CC(=O)CC[C@]5(C)[C@H]4[C@@H](O)C[C@]3(C)[C@]2(C(=O)CO)O1` [FLURANDRENOLIDE], the IC50 entry is listed as “Not Active”.

As to `Cc1ccc(S(=O)(=O)NC(=O)NN2CC3CCCC3C2)cc1` (stereo not given) [GLICLAZIDE], the IC50 entry is “Not Active”.

On to `NC(=O)NO` [HYDROXYUREA], for which the IC50 entry was “Not Active”.

Tested on in another assay: not listed separately
The assay can be described thus: DRUGMATRIX: GABAA, Muscimol, Central radioligand binding (ligand: [3H] Muscimol). Type of assay: cell membranes, Rattus norvegicus, Wistar, Brain, Membrane. The note with it: Not Active = under 50% inhibition at 10 µM.
Take `CC1(C)O[C@@H]2C[C@H]3[C@@H]4C[C@H](F)C5=CC(=O)C=C[C@]5(C)[C@H]4[C@@H](O)C[C@]3(C)[C@]2(C(=O)CO)O1` [FLUNISOLIDE]: the IC50 entry is “Not Active” and the Ki result is on record as “Not Active”.

Take `CC1(C)O[C@@H]2C[C@H]3[C@@H]4C[C@H](F)C5=CC(=O)C=C[C@]5(C)[C@@]4(F)[C@@H](O)C[C@]3(C)[C@]2(C(=O)CO)O1` [FLUOCINOLONE ACETONIDE]: the IC50 entry is recorded as “Not Active” and the Ki result is on record as “Not Active”.

`CC1(C)O[C@@H]2C[C@H]3[C@@H]4C[C@H](F)C5=CC(=O)CC[C@]5(C)[C@H]4[C@@H](O)C[C@]3(C)[C@]2(C(=O)CO)O1` [FLURANDRENOLIDE]: the IC50 result is “Not Active” and the Ki result is given as “Not Active”.

Take `Cc1ccc(S(=O)(=O)NC(=O)NN2CC3CCCC3C2)cc1` (stereo not given) [GLICLAZIDE]: the IC50 result is on record as “Not Active” and the Ki entry was “Not Active”.

For `NC(=O)NO` [HYDROXYUREA], the IC50 entry was “Not Active” and the Ki result was “Not Active”.

Tested on in another assay: not listed separately
The assay can be described thus: DRUGMATRIX: Glutamate, NMDA, Agonism radioligand binding (ligand: [3H] CGP-39653). Type of assay: cell membranes, Rattus norvegicus, Wistar, Cerebral cortex, Membrane. The conditions noted are these: Not Active = under 50% inhibition at 10 µM.
For the compound `CC1(C)O[C@@H]2C[C@H]3[C@@H]4C[C@H](F)C5=CC(=O)C=C[C@]5(C)[C@H]4[C@@H](O)C[C@]3(C)[C@]2(C(=O)CO)O1` [FLUNISOLIDE], the IC50 entry is “Not Active” and the Ki entry is “Not Active”.

Consider `CC1(C)O[C@@H]2C[C@H]3[C@@H]4C[C@H](F)C5=CC(=O)C=C[C@]5(C)[C@@]4(F)[C@@H](O)C[C@]3(C)[C@]2(C(=O)CO)O1` [FLUOCINOLONE ACETONIDE], for which the IC50 result is on record as “Not Active” and the Ki result was “Not Active”.

For `CC1(C)O[C@@H]2C[C@H]3[C@@H]4C[C@H](F)C5=CC(=O)CC[C@]5(C)[C@H]4[C@@H](O)C[C@]3(C)[C@]2(C(=O)CO)O1` [FLURANDRENOLIDE], the IC50 result is “Not Active” and the Ki entry is on record as “Not Active”.

For the compound `Cc1ccc(S(=O)(=O)NC(=O)NN2CC3CCCC3C2)cc1` (stereo not given) [GLICLAZIDE], the IC50 result is recorded as “Not Active” and the Ki entry is “Not Active”.

With `NC(=O)NO` [HYDROXYUREA], the IC50 entry is “Not Active” and the Ki result was “Not Active”.

Tested on in another assay: not listed separately
The assay can be described thus: DRUGMATRIX: Interleukin IL-1 radioligand binding (ligand: [125I] interleukin 1beta). The note with it: nih3t3; Not Active = under 50% inhibition at 10 µM. Type of assay: cell membranes, Membrane.
In the case of `CC1(C)O[C@@H]2C[C@H]3[C@@H]4C[C@H](F)C5=CC(=O)C=C[C@]5(C)[C@H]4[C@@H](O)C[C@]3(C)[C@]2(C(=O)CO)O1` [FLUNISOLIDE], the IC50 result is given as “Not Active” and the Ki entry is given as “Not Active”.

As to `CC1(C)O[C@@H]2C[C@H]3[C@@H]4C[C@H](F)C5=CC(=O)C=C[C@]5(C)[C@@]4(F)[C@@H](O)C[C@]3(C)[C@]2(C(=O)CO)O1` [FLUOCINOLONE ACETONIDE], the IC50 result is “Not Active” and the Ki entry is given as “Not Active”.

As to `CC1(C)O[C@@H]2C[C@H]3[C@@H]4C[C@H](F)C5=CC(=O)CC[C@]5(C)[C@H]4[C@@H](O)C[C@]3(C)[C@]2(C(=O)CO)O1` [FLURANDRENOLIDE], the IC50 entry is listed as “Not Active” and the Ki entry is listed as “Not Active”.

`Cc1ccc(S(=O)(=O)NC(=O)NN2CC3CCCC3C2)cc1` (stereo not given) [GLICLAZIDE]: the IC50 result was “Not Active” and the Ki entry is recorded as “Not Active”.

For `NC(=O)NO` [HYDROXYUREA], the IC50 result is listed as “Not Active” and the Ki entry was “Not Active”.

A further assay has as its target Protein phosphatase 3 catalytic subunit alpha (Homo sapiens, UniProt Q08209). Further details: species or system Escherichia coli.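 Also: inhibition of calcineurin (PP2B) enzyme activity, measured with DiFMUP as the substrate; in other assays of this panel Not Active means under 50% inhibition at 10 µM.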
Conditions: not given
With `CC1(C)O[C@@H]2C[C@H]3[C@@H]4C[C@H](F)C5=CC(=O)C=C[C@]5(C)[C@H]4[C@@H](O)C[C@]3(C)[C@]2(C(=O)CO)O1` [FLUNISOLIDE], the IC50 entry is on record as “Not Active”.

As to `CC1(C)O[C@@H]2C[C@H]3[C@@H]4C[C@H](F)C5=CC(=O)C=C[C@]5(C)[C@@]4(F)[C@@H](O)C[C@]3(C)[C@]2(C(=O)CO)O1` [FLUOCINOLONE ACETONIDE], the IC50 entry is recorded as “Not Active”.

For `CC1(C)O[C@@H]2C[C@H]3[C@@H]4C[C@H](F)C5=CC(=O)CC[C@]5(C)[C@H]4[C@@H](O)C[C@]3(C)[C@]2(C(=O)CO)O1` [FLURANDRENOLIDE], the IC50 result was “Not Active”.

`Cc1ccc(S(=O)(=O)NC(=O)NN2CC3CCCC3C2)cc1` (stereo not given) [GLICLAZIDE]: the IC50 entry is “Not Active”.

As for `NC(=O)NO` [HYDROXYUREA], the IC50 entry is listed as “Not Active”.

The next assay addresses Acetylcholinesterase (Homo sapiens, UniProt P22303). The assay can be described thus: DRUGMATRIX: Acetylcholinesterase enzyme inhibition (substrate: acetylthiocholine). Type of assay: cell-based, HEK293. The conditions noted are these: hek293; Not Active = under 50% inhibition at 10 µM.
Consider `CC1(C)O[C@@H]2C[C@H]3[C@@H]4C[C@H](F)C5=CC(=O)C=C[C@]5(C)[C@H]4[C@@H](O)C[C@]3(C)[C@]2(C(=O)CO)O1` [FLUNISOLIDE], for which the IC50 result is given as “Not Active”.

`CC1(C)O[C@@H]2C[C@H]3[C@@H]4C[C@H](F)C5=CC(=O)C=C[C@]5(C)[C@@]4(F)[C@@H](O)C[C@]3(C)[C@]2(C(=O)CO)O1` [FLUOCINOLONE ACETONIDE]: the IC50 entry is recorded as “Not Active”.

`CC1(C)O[C@@H]2C[C@H]3[C@@H]4C[C@H](F)C5=CC(=O)CC[C@]5(C)[C@H]4[C@@H](O)C[C@]3(C)[C@]2(C(=O)CO)O1` [FLURANDRENOLIDE]: the IC50 entry is given as “Not Active”.

For the compound `Cc1ccc(S(=O)(=O)NC(=O)NN2CC3CCCC3C2)cc1` (stereo not given) [GLICLAZIDE], the IC50 result is “Not Active”.

On to `NC(=O)NO` [HYDROXYUREA], for which the IC50 result was “Not Active”.
